Test results reported in patent US20250171417A1, “HETEROCYCLIC DERIVATIVE, AND COMPOSITION AND PHARMACEUTICAL USE THEREOF” (Xizang Haisco Pharmaceutical Co., Ltd., priority 2021, published 2025).

The molecules below were run on Prostate cancer cells 22RV1 (assay: Experiment on inhibiting 22RV1 cell proliferation (CellTiter-Glo, 7 days)). Details: Homo sapiens, 168 h, 22RV1 cells, 7 days incubation, cells with nM printed beside the value, read-out: IC50 values for inhibition of 22RVI cells.
Type: cell-based
Description: Prostate cancer cells 22RV1 were purchased from ATCC, the cell medium was RPMI 1640+10% FBS, and the cells were cultured in an incubator at 37° C. under 5% CO2. On day 1, the cells in the exponential growth phase were collected. With a 1% css-FBS phenol red-free medium, the cell suspension was adjusted to a corresponding concentration, plated at 2000 cells/well and incubated overnight. On day 2, compounds at different concentrations were added, and the plate was placed in the incubator and incubated for further 7 days. After the incubation was completed, according to operation instructions for a CellTiter-Glo kit (Promega, G7573), 50 μL of CellTiter-Glo reagents, which were already pre-melted and equilibrated to room temperature, were added to each well, and the mixtures were uniformly mixed for 2 min using a microplate shaker. The plate was placed at room temperature for 10 min. and then […] signal values were measured using a microplate reader (PHERAstar FSX). The results were processed according to formula (I), the inhibition rate of the compound at different concentrations was calculated, and the IC50 value of the compound with an inhibition rate of 50% was calculated using origin9.2 software with DoseResp function, wherein RLUcompound was the readout of the treated group, and RLUcontrol was the average value of the DMSO vehicle control group.

SMILES	IC50
N#Cc1ccc(NC(=O)C2(n3cc(C#CC4CN(c5ccc6c(c5)C(=O)N(C5CCC(=O)NC5=O)C6=O)C4)cn3)CCC2)c2ccccc12 (stereo not shown) [Compound 34, N-(4-cyanonaphthalen-1-yl)-1-(4-((1-(2-(2,6-dioxopiperidin-3-yl)-1,3-dioxoisoindolin-5-yl)azetidin-3-yl)ethynyl)-1H-pyrazol-1-yl)cyclobutane-1-carboxamide]	< 100 nM
O=C1CCC(N2C(=O)c3ccc(N4CC(C#Cc5cnn(C6(C(=O)Nc7ccc(C(F)(F)F)cc7C7CC7)CCC6)c5)C4)cc3C2=O)C(=O)N1 (stereo not shown) [Compound 35, N-(2-cyclopropyl-4-(trifluoromethyl)phenyl)-1-(4-((1-(2-(2,6-dioxopiperidin-3-yl)-1,3-dioxoisoindolin-5-yl)azetidin-3-yl)ethynyl)-1H-pyrazol-1-yl)cyclobutane-1-carboxamide]	< 50 nM
N#Cc1ccc(NC(=O)C2(n3cc(C#CC4CN(c5ccc6c(c5)C(=O)N(C5CCC(=O)NC5=O)C6=O)C4)cn3)CCC2)cc1C1CC1 (stereo not shown) [Compound 40, N-(4-cyano-3-cyclopropylphenyl)-1-(4-((1-(2-(2,6-dioxopiperidin-3-yl)-1,3-dioxoisoindolin-5-yl)azetidin-3-yl)ethynyl)-1H-pyrazol-1-yl)cyclobutane-1-carboxamide]	< 100 nM
CCC(CC)(C(=O)Nc1ccc(C#N)c(C(F)(F)F)c1)n1cc(C#CC2CN(c3ccc4c(c3)C(=O)N(C3CCC(=O)NC3=O)C4=O)C2)cn1 (stereo not shown) [Compound 41, N-(4-cyano-3-(trifluoromethyl)phenyl)-2-(4-((1-(2-(2,6-dioxopiperidin-3-yl)-1,3-dioxoisoindolin-5-yl)azetidin-3-yl)ethynyl)-1H-pyrazol-1-yl)-2-ethylbutanamide]	< 50 nM
N#Cc1ccc(NC(=O)C2(n3cc(C#CC4CN(c5ccc6c(c5)C(=O)N(C5CCC(=O)NC5=O)C6=O)C4)cn3)CCC2)c(C2CC2)c1 (stereo not shown) [Compound 45, N-(4-cyano-2-cyclopropylphenyl)-1-(4-((1-(2-(2,6-dioxopiperidin-3-yl)-1,3-dioxoisoindolin-5-yl)azetidin-3-yl)ethynyl)-1H-pyrazol-1-yl)cyclobutane-1-carboxamide]	< 50 nM
N#Cc1ccc(NC(=O)C2(n3cc(C#CC4CN(c5ccc6c(c5)C(=O)N(C5CCC(=O)NC5=O)C6=O)C4)cn3)CCCC2)cc1C(F)(F)F (stereo not shown) [Compound 48, N-(4-cyano-3-(trifluoromethyl)phenyl)-1-(4-((1-(2-(2,6-dioxopiperidin-3-yl)-1,3-dioxoisoindolin-5-yl)azetidin-3-yl)ethynyl)-1H-pyrazol-1-yl)cyclopentane-1-carboxamide]	< 100 nM
N#Cc1ccc(NC(=O)C2(n3cc(C#CC4CN(c5ccc6c(c5)C(=O)N(C5CCC(=O)NC5=O)C6=O)C4)cn3)CCC2)cc1N1CCCC1 (stereo not shown) [Compound 50, N-(4-cyano-3-(pyrrolidin-1-yl)phenyl)-1-(4-((1-(2-(2,6-dioxopiperidin-3-yl)-1,3-dioxoisoindolin-5-yl)azetidin-3-yl)ethynyl)-1H-pyrazol-1-yl)cyclobutane-1-carboxamide]	< 100 nM
CC(C)(C(=O)Nc1ccc(C(F)(F)F)cc1-n1cccn1)n1cc(C#CC2CN(c3ccc4c(c3)C(=O)N(C3CCC(=O)NC3=O)C4=O)C2)cn1 (stereo not shown) [Compound 51, N-(2-(1H-pyrazol-1-yl)-4-(trifluoromethyl)phenyl)-2-(4-((1-(2-(2,6-dioxopiperidin-3-yl)-1,3-dioxoisoindolin-5-yl)azetidin-3-yl)ethynyl)-1H-pyrazol-1-yl)-2-methylpropanamide]	< 50 nM

Same assay, conditions: Homo sapiens, 168 h, 22RV1 cells, 7 days incubation, cells without a unit of their own (μM), read-out: IC50 values for inhibition of 22RVI cells

SMILES	IC50
CC(C)(C(=O)Nc1ccc(C#N)c(C(F)(F)F)c1)n1cc(C#CC2CN(c3cc4c(cc3F)C(=O)N(C3CCC(=O)NC3=O)C4=O)C2)cn1 (stereo not shown) [Compound 3]	< 1000 nM
Cc1cc(NC(=O)C(C)(C)n2cc(C#CC3CN(c4ccc5c(c4)C(=O)N(C4CCC(=O)NC4=O)C5=O)C3)cn2)ccc1Cl (stereo not shown) [Compound 16, N-(4-chloro-3-methylphenyl)-2-(4-((1-(2-(2,6-dioxopiperidin-3-yl)-1,3-dioxoisoindolin-5-yl)azetidin-3-yl)ethynyl)-1H-pyrazol-1-yl)-2-methylpropanamide]	< 1000 nM
CC(C)(C(=O)Nc1ccc(C(F)(F)F)c(Cl)c1)n1cc(C#CC2CN(c3ccc4c(c3)C(=O)N(C3CCC(=O)NC3=O)C4=O)C2)cn1 (stereo not shown) [Compound 17, N-(3-chloro-4-(trifluoromethyl)phenyl)-2-(4-((1-(2-(2,6-dioxopiperidin-3-yl)-1,3-dioxoisoindolin-5-yl)azetidin-3-yl)ethynyl)-1H-pyrazol-1-yl)-2-methylpropanamide]	< 1000 nM
Cc1ccc(NC(=O)C(C)(C)n2cc(C#CC3CN(c4ccc5c(c4)C(=O)N(C4CCC(=O)NC4=O)C5=O)C3)cn2)cc1Cl (stereo not shown) [Compound 18, N-(3-chloro-4-methylphenyl)-2-(4-((1-(2-(2,6-dioxopiperidin-3-yl)-1,3-dioxoisoindolin-5-yl)azetidin-3-yl)ethynyl)-1H-pyrazol-1-yl)-2-methylpropanamide]	< 1000 nM
CC(C)(C(=O)Nc1cc(Cl)c(C(F)(F)F)c(Cl)c1)n1cc(C#CC2CN(c3ccc4c(c3)C(=O)N(C3CCC(=O)NC3=O)C4=O)C2)cn1 (stereo not shown) [Compound 22, N-(3,5-dichloro-4-(trifluoromethyl)phenyl)-2-(4-((1-(2-(2,6-dioxopiperidin-3-yl)-1,3-dioxoisoindolin-5-yl)azetidin-3-yl)ethynyl)-1H-pyrazol-1-yl)-2-methylpropanamide]	< 1000 nM
COc1cc(NC(=O)C(C)(C)n2cc(C#CC3CN(c4ccc5c(c4)C(=O)N(C4CCC(=O)NC4=O)C5=O)C3)cn2)ccc1C#N (stereo not shown) [Compound 23, N-(4-cyano-3-methoxyphenyl)-2-(4-((1-(2-(2,6-dioxopiperidin-3-yl)-1,3-dioxoisoindolin-5-yl)azetidin-3-yl)ethynyl)-1H-pyrazol-1-yl)-2-methylpropanamide]	< 1000 nM
CC(C)(C(=O)Nc1ccc([N+](=O)[O-])c(Cl)c1)n1cc(C#CC2CN(c3ccc4c(c3)C(=O)N(C3CCC(=O)NC3=O)C4=O)C2)cn1 (stereo not shown) [Compound 25, N-(3-chloro-4-nitrophenyl)-2-(4-((1-(2-(2,6-dioxopiperidin-3-yl)-1,3-dioxoisoindolin-5-yl)azetidin-3-yl)ethynyl)-1H-pyrazol-1-yl)-2-methylpropanamide]	< 1000 nM
CC(C)(C(=O)Nc1ccc([N+](=O)[O-])c(C(F)(F)F)c1)n1cc(C#CC2CN(c3ccc4c(c3)C(=O)N(C3CCC(=O)NC3=O)C4=O)C2)cn1 (stereo not shown) [Compound 26, 2-(4-((1-(2-(2,6-dioxopiperidin-3-yl)-1,3-dioxoisoindolin-5-yl)azetidin-3-yl)ethynyl)-1H-pyrazol-1-yl)-2-methyl-N-(4-nitro-3-(trifluoromethyl)phenyl)propanamide]	< 1000 nM
CC(C)(C(=O)Nc1ccc(C#N)cc1F)n1cc(C#CC2CN(c3ccc4c(c3)C(=O)N(C3CCC(=O)NC3=O)C4=O)C2)cn1 (stereo not shown) [Compound 27, N-(4-cyano-2-fluorophenyl)-2-(4-((1-(2-(2,6-dioxopiperidin-3-yl)-1,3-dioxoisoindolin-5-yl)azetidin-3-yl)ethynyl)-1H-pyrazol-1-yl)-2-methylpropanamide]	< 1000 nM
CC(C)(C(=O)Nc1ccc(C#N)c(F)c1)n1cc(C#CC2CN(c3ccc4c(c3)C(=O)N(C3CCC(=O)NC3=O)C4=O)C2)cn1 (stereo not shown) [Compound 32, N-(4-cyano-3-fluorophenyl)-2-(4-((1-(2-(2,6-dioxopiperidin-3-yl)-1,3-dioxoisoindolin-5-yl)azetidin-3-yl)ethynyl)-1H-pyrazol-1-yl)-2-methylpropanamide]	< 1000 nM
CC(C)(C(=O)Nc1ccc(C(F)(F)F)cc1C#N)n1cc(C#CC2CN(c3ccc4c(c3)C(=O)N(C3CCC(=O)NC3=O)C4=O)C2)cn1 (stereo not shown) [Compound 42, N-(2-cyano-4-(trifluoromethyl)phenyl)-2-(4-((1-(2-(2,6-dioxopiperidin-3-yl)-1,3-dioxoisoindolin-5-yl)azetidin-3-yl)ethynyl)-1H-pyrazol-1-yl)-2-methylpropanamide]	< 1000 nM
CC(C)(C(=O)Nc1ccc(C#N)c2ncccc12)n1cc(C#CC2CN(c3ccc4c(c3)C(=O)N(C3CCC(=O)NC3=O)C4=O)C2)cn1 (stereo not shown) [Compound 43, N-(8-cyanoquinolin-5-yl)-2-(4-((1-(2-(2,6-dioxopiperidin-3-yl)-1,3-dioxoisoindolin-5-yl)azetidin-3-yl)ethynyl)-1H-pyrazol-1-yl)-2-methylpropanamide]	< 1000 nM
CC(C)(C(=O)Nc1ccc(C#N)cc1C(F)(F)F)n1cc(C#CC2CN(c3ccc4c(c3)C(=O)N(C3CCC(=O)NC3=O)C4=O)C2)cn1 (stereo not shown) [Compound 44, N-(4-cyano-2-(trifluoromethyl)phenyl)-2-(4-((1-(2-(2,6-dioxopiperidin-3-yl)-1,3-dioxoisoindolin-5-yl)azetidin-3-yl)ethynyl)-1H-pyrazol-1-yl)-2-methylpropanamide]	< 1000 nM
CCC(C)(C(=O)Nc1ccc(C#N)c(C(F)(F)F)c1)n1cc(C#CC2CN(c3ccc4c(c3)C(=O)N(C3CCC(=O)NC3=O)C4=O)C2)cn1 (stereo not shown) [Compound 46, N-(4-cyano-3-(trifluoromethyl)phenyl)-2-(4-((1-(2-(2,6-dioxopiperidin-3-yl)-1,3-dioxoisoindolin-S-yl)azetidin-3-yl)ethynyl)-1H-pyrazol-1-yl)-2-methylbutanamide]	< 1000 nM
